For test [1], the target named is T1, human norepinephrine transporter (Homo sapiens, UniProt P23975).
T1 construct: host or cells: HEK-293
As to the kind of experiment: hNET receptor binding ([125I]-RTI-55 radioligand binding). The following applies: membranes of HEK-293 cells transfected with human norepinephrine transporter, IC50 converted to Ki by Cheng-Prusoff, read-out: hNET (Ki). An excerpt:
(§1) The ability of the compounds of this invention to bind to the hNET and serotonin SERT receptor can be determined using conventional radiolig and receptor binding assays. The receptors can be heterologously expressed in cell lines and experiments conducted in membrane preparations from the cell lines using procedures outlined below. IC50 concentrations can be determined by nonlinear regression of concentration-dependent reduction in specific binding. The Cheng-Prussoff equation can be used to convert the IC50 to Ki concentrations.
Cell pastes of HEK-293 cells transfected with the human norepinephrine transporter were supplied by the Pfizer Ann Arbor Protein Expression and Production group. […] Aliquots of membranes (5 mg/ml protein) were stored in liquid nitrogen until used.
The reaction was incubated by gentle agitation for 90 min at room temperature and was terminated by filtration through Whatman GF/C filter plates using a Brandel 96-well plate harvester. […] Test compounds were run in duplicate, and specific binding was defined as the difference between binding in the presence and absence of 10 μM desipramine.
(§2) Excel and GraphPad Prism software were used for data calculation and analysis. IC50 values were converted to Ki values using the Cheng-Prusoff equation.

Test [2] concerns the target T2, human seritonin transporter (Homo sapiens, UniProt P31645).
T2 construct: host or cells: HEK-293
The test can be described thus: hSERT receptor binding ([125I]-RTI-55 radioligand binding). As to conditions: membranes of HEK-293 cells transfected with human seritonin transporter, IC50 converted to Ki by Cheng-Prusoff, read-out: SERT (Ki).
Source text: as §1
Cell pastes of HEK-293 cells transfected with the human seritonin transporter were supplied by the Pfizer Ann Arbor Protein Expression and Production group. […] Aliquots of membranes (5 mg/ml protein) were stored in liquid nitrogen until used.
The reaction was incubated by gentle agitation for 90 min at room temperature and was terminated by filtration through Whatman GF/C filter plates using a Brandel 96-well plate harvester. […] Test compounds were run in duplicate, and specific binding was defined as the difference between binding in the presence and absence of […] citalopram.
as §2

SMILES strings stand for the structures. Some results are limits rather than exact numbers.

T1 sequence (P23975 whole entry): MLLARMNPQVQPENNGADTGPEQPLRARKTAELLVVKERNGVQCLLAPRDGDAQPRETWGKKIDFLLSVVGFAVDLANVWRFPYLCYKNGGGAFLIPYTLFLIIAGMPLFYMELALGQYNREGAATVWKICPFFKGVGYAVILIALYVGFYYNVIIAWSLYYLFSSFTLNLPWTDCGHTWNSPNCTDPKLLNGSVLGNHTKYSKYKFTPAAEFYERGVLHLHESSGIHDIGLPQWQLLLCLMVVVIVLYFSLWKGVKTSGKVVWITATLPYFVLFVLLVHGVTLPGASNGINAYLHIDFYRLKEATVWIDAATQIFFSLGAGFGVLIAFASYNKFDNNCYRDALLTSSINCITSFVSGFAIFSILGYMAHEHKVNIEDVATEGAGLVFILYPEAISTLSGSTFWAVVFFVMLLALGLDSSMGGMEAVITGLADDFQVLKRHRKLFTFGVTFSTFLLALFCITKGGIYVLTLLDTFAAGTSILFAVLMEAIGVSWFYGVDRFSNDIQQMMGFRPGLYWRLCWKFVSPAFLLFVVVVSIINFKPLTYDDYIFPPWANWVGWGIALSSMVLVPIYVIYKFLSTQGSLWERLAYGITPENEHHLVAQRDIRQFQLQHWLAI
T2 sequence (P31645 whole entry): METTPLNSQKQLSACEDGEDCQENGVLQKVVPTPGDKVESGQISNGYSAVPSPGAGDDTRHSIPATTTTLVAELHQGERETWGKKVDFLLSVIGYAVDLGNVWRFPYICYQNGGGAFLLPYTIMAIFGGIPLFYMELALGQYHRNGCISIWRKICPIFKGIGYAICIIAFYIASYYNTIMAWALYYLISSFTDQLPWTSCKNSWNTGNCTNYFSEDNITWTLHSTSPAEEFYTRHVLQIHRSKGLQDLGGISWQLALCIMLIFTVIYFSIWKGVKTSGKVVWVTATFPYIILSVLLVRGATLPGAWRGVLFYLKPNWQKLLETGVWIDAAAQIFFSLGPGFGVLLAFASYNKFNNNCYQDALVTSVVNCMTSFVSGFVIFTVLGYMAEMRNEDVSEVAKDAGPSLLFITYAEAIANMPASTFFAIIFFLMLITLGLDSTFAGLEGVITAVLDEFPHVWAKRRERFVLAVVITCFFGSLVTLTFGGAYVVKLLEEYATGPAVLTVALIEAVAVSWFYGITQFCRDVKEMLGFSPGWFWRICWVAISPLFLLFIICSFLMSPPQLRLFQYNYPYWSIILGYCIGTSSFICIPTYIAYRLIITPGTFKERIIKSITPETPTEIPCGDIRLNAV

In the case of `CC(C)Cc1ncccc1O[C@@H](c1ccccc1)[C@@H]1CNCCO1` [Example 182, (2S)-2-[(S)-[(2-isobutylpyridin-3-yl)oxy](phenyl)methyl]morpholine], the Ki in test [1] worked out at 31 nM; in test [2] it was 7080 nM.

Consider `Cc1coc(C(Oc2ccccc2C2CC2)[C@@H]2CNCCO2)n1` (stereo partly drawn) [Example 190, (2S)-2-[(2-cyclopropylphenoxy)(4-methyl-1,3-oxazol-2-yl)methyl]morpholine], for which the Ki in test [1] came out at 6 nM; in test [2], 4340 nM.

Consider `CC(C)Oc1ccccc1O[C@@H](c1ccccn1)[C@@H]1CNCCO1` [Example 126, (2S)-2-[(S)-(2-isopropoxyphenoxy)(pyridin-2-yl)methyl]morpholine], for which the Ki in test [1] was 32 nM; in test [2], at least 10000 nM.

Turning to `CC(C)c1cccc(F)c1O[C@@H](c1ccccc1)[C@@H]1CNCCO1` [Example 183, (2S)-2-[(S)-(2-fluoro-6-isopropylphenoxy)(phenyl)methyl]morpholine], the Ki in test [1] came out at 7 nM; in test [2] it was 5340 nM.

Consider `CCOc1ccccc1O[C@@H](c1cccc(C)n1)[C@@H]1CNCCO1` [Example 107, (2S)-2-[(S)-(2-ethoxyphenoxy)(6-methylpyridin-2-yl)methyl]morpholine], for which the Ki in test [1] worked out at 27 nM; in test [2], 3670 nM.

In the case of `c1ccc([C@H](Oc2ccccc2C2CC2)[C@H]2CNCCO2)cc1` [Example 71, (R)-2-[(S)-(2-Cyclopropyl-phenoxy)-phenyl-methyl]-morpholine], the values for the inhibition constant Ki in test [1] and in test [2] were 50 nM and 65 nM, respectively.

Regarding `COc1cccc(OC)c1OC(c1ccccc1)[C@@H]1CNCCO1` (stereo partly drawn) [Example 148, (2S)-2-[(2,6-dimethoxyphenoxy)(phenyl)methyl]morpholine], the inhibitory constant (Ki) in test [1] is 69 nM; in test [2], at least 10000 nM.

`CCOc1ncccc1OC(C(C)C)[C@@H]1CNCCO1` (stereo partly drawn) [Example 189, (2S)-2-{1-[(2-ethoxypyridin-3-yl)oxy]-2-methylpropyl}morpholine]: the inhibition constant (Ki) in test [1] came out at 147 nM; in test [2], 5220 nM.

Consider `Fc1ccc(-c2ccccc2O[C@@H](c2ccccc2)[C@@H]2CNCCO2)cc1` [Example 81, (S)-2-[(S)-(4′-Fluoro-biphenyl-2-yloxy)-phenyl-methyl]-morpholine], for which the results for the inhibition constant Ki in test [1] and in test [2] were 9.6 nM and 4320 nM, respectively.

For the molecule `Cc1cccnc1[C@H](Oc1ccccc1OC(F)(F)F)[C@@H]1CNCCO1` [Example 139, (2S)-2-{(S)-(3-methylpyridin-2-yl)[2-(trifluoromethoxy)phenoxy]methyl}morpholine], the inhibition constant (Ki) in test [1] turned out to be 1190 nM; in test [2], 1140 nM.

Turning to `c1ccc([C@H](Oc2ccccc2CC2CC2)[C@@H]2CNCCO2)cc1` [Example 61, (S)-2-[(S)-(2-Cyclopropylmethyl-phenoxy)-phenyl-methyl]-morpholine], the results for the Ki in test [1] and in test [2] were 68 nM and 6600 nM, respectively.

Consider `CCOc1ccccc1OC(c1ccc(F)cc1)[C@H]1CNCCO1` (stereo partly shown) [Example 35], for which the Ki in test [1] came to 11 nM; in test [2], 605 nM.

Regarding `Fc1ccc(Cl)c(O[C@@H](c2ccccn2)[C@@H]2CNCCO2)c1` [Example 152, (2S)-2-[(S)-(2-chloro-5-fluorophenoxy)(pyridin-2-yl)methyl]morpholine], the inhibition constant (Ki) amounted to 9 nM in test [1] and 1940 nM in test [2].

As for `CCOc1ccccc1O[C@@H](c1cccc(OC)n1)[C@@H]1CNCCO1` [Example 108, (2S)-2-[(S)-(2-ethoxyphenoxy)(6-methoxypyridin-2-yl)methyl]morpholine], the results for the Ki in test [1] and in test [2] were 28 nM and 676 nM, respectively.

With `CCOc1ncccc1O[C@@H](c1ccccc1)[C@@H]1CNCCO1` [Example 137, (2S)-2-[(S)-[(2-ethoxypyridin-3-yl)oxy](phenyl)methyl]morpholine], the Ki in test [1] is 9 nM; in test [2], 1810 nM.

As to `Fc1ccc(C(Oc2c(F)cccc2F)[C@H]2CNCCO2)cc1` (stereo partly drawn) [Example 111, (2R)-2-[(2,6-difluorophenoxy)(4-fluorophenyl)methyl]morpholine], the Ki in test [1] is 105 nM; in test [2], 237 nM.

Take `CCC[C@H](Oc1cccnc1OCC)[C@@H]1CNCCO1` [Example 191, (2S)-2-{(1S)-1-[(2-ethoxypyridin-3-yl)oxy]butyl}morpholine]: the results for the Ki in test [1] and in test [2] were 6 nM and 5830 nM, respectively.

Turning to `c1ccc(C(Oc2ccc3ccoc3c2)C2CNCCO2)cc1` (stereo in doubt) [Example 45, (R)-2-[(S)-(Benzofuran-6-yloxy)-phenyl-methyl]-morpholine], the figures for the Ki in test [1] and in test [2] were 10 nM and 45 nM, respectively.

For `COc1ccc(F)cc1OC(c1ccccc1)[C@@H]1CNCCO1` (stereo partly drawn) [Example 167, (2S)-2-[(5-fluoro-2-methoxyphenoxy)(phenyl)methyl]morpholine], the Ki stood at 8 nM in test [1] and 2550 nM in test [2].

As to `CCOC(=O)c1ccccc1O[C@@H](c1ccccc1)[C@@H]1CNCCO1` [Example 15, (2S,3S)-2-(Morpholin-2-yl-phenyl-methoxy)-benzoic acid ethyl ester], the Ki in test [1] is 15 nM; in test [2], 3770 nM.

With `N#Cc1ccccc1O[C@@H](c1ccccn1)[C@@H]1CNCCO1` (single isomer, unassigned) [Example 22 (2S, 3R)], the Ki is 4820 nM in test [1] and 6670 nM in test [2].

Consider `c1ccc([C@H](Oc2ccc3occc3c2)[C@@H]2CNCCO2)cc1` [Example 48, (S)-2-[(S)-(Benzofuran-5-yloxy)-phenyl-methyl]-morpholine], for which the Ki in test [1] worked out at 31 nM; in test [2] it was 10 nM.

For `CCOc1ccccc1OC(CC)[C@@H]1CNCCO1` (mixture of isomers) [Example 106], the Ki in test [1] is 54 nM; in test [2], at least 10000 nM.

For `c1ccc([C@H](Oc2ccccc2C2CC2)[C@@H]2CNCCO2)cc1` [Example 11, (S)-2-[(S)-(2-Cyclopropyl-phenoxy)-phenyl-methyl]-morpholine], the inhibition constant Ki in test [1] was 1.8 nM; in test [2], 452 nM.

For the molecule `COc1c(F)cccc1OC(c1ccccc1)[C@@H]1CNCCO1` (stereo partly drawn) [Example 168, (2S)-2-[(3-fluoro-2-methoxyphenoxy)(phenyl)methyl]morpholine], the inhibitory constant (Ki) in test [1] stood at 5 nM; in test [2], 791 nM.

For `c1ccc(-c2ccccc2O[C@@H](c2ccccn2)[C@@H]2CNCCO2)cc1` [Example 153, (2S)-2-[(S)-(biphenyl-2-yloxy)(pyridin-2-yl)methyl]morpholine], the values for the Ki in test [1] and in test [2] were 14 nM and 6320 nM, respectively.

On to `c1ccc(Oc2ncccc2OC[C@H]2CNCCO2)cc1` [Example 77, (R)-2-(2-Phenoxy-pyridin-3-yloxymethyl)-morpholine], for which the values for the Ki in test [1] and in test [2] were 3160 nM and at least 10000 nM, respectively.

As for `FC(F)(F)Oc1ccccc1O[C@@H](c1cccnc1)[C@H]1CNCCO1` [Example 26, (R)-2-[(S)-Pyridin-3-yl-(2-trifluoromethoxy-phenoxy)-methyl]-morpholine], the Ki in test [1] was found to be 359 nM; in test [2] it was 2440 nM.

With `FCCOc1ccccc1O[C@@H](c1ccccc1)[C@@H]1CNCCO1` [Example 58, (S)-2-{(S)-[2-(2-Fluoro-ethoxy)-phenoxy]-phenyl-methyl}-morpholine], the results for the inhibition constant Ki in test [1] and in test [2] were 7.4 nM and 965 nM, respectively.

As to `FC(F)(F)c1ccccc1O[C@@H](c1ccccn1)[C@@H]1CNCCO1` [Example 133, (2S)-2-{(S)-pyridin-2-yl[2-(trifluoromethyl)phenoxy]methyl}morpholine], the Ki in test [1] came out at 1460 nM; in test [2], 9060 nM.

In the case of `Fc1ccccc1O[C@@H](c1ccccc1)[C@H]1CNCCO1` [Example 18, (R)-2-[(S)-(2-Fluoro-phenoxy)-phenyl-methyl]-morpholine], the Ki in test [1] was 133 nM; in test [2], 72 nM.

With `c1ccc([C@H](Oc2ccccc2C2CC2)[C@@H]2CNCCO2)nc1` [Example 154, (2S)-2-[(S)-(2-cyclopropylphenoxy)(pyridin-2-yl)methyl]morpholine], the Ki in test [1] is 12 nM; in test [2], 2520 nM.

As to `COc1cccc([C@H](Oc2c(F)cccc2OC)[C@@H]2CNCCO2)n1` [Example 188, (2S)-2-[(S)-(2-fluoro-6-methoxyphenoxy) (6-methoxypyridin-2-yl)methyl]morpholine], the values for the Ki in test [1] and in test [2] were 14 nM and 2210 nM, respectively.

With `Fc1ccc(OC(C2CC2)[C@@H]2CNCCO2)c(F)c1` (mixture of isomers) [Example 99, (2S)-2-[cyclopropyl(2,4-difluorophenoxy)methyl]morpholine], the Ki came out at 880 nM in test [1] and 1270 nM in test [2].

Regarding `OCc1ccccc1O[C@@H](c1ccccc1)[C@@H]1CNCCO1` [Example 85, (2S,3S)-[2-(Morpholin-2-yl-phenyl-methoxy)-phenyl]-methanol], the inhibition constant Ki in test [1] amounted to 37 nM; in test [2], 869 nM.

Source of the values: patent publication US7659394B2 (Pfizer Inc, priority 2004, dated 2010).
